Consider 25 molecules from patent publication US20180305345A1 (priority 2015, published 2018).

Data set [1] relates to VSVΔ51 in 786-0 cells. It counts as cell-based, human.
The subject of data set [2] is 786-0 cells. The following applies: human.
Data set [3] deals with oncolytic HSV-1 expressing GFP in 786-0 cancer cells. It counts as cell-based, human.
Data set [4] concerns ICPO-null HSV-N212eGFP in 786-0 cells. It is filed as cell-based, human. As to conditions: MOI 0.01, 48 h after infection.
For data set [5] the following is noted: female, Balb/c, mouse, in vivo.
In data set [6] the test system is VSVΔ51-GFP in CT26 murine colon cancer tumors. It counts as cell-based, mouse.
For data set [7], the system named is MG1-eGFP in 786-0 cells. It counts as cell-based, human.
Data set [8] in a line: physchem. As to conditions: buffer.
In data set [9] the test system is VSVΔ51. As to conditions: cited from earlier work.
Data set [10] in a line: physchem. The following applies: buffer, pH 7.4.
For data set [11] the following is noted: mouse; for Plasma stab. % remaning at 3 hrs: Balb/c, pH 7.4.
Data set [12] concerns VSVΔ51-GFP in normal mouse brain, lung and spleens.
In data set [13] the test system is VSVΔ51-FLuc in CT26 tumors. The arrangement: species or system Balb/c mice. The following applies: mouse, in vivo.

As a reminder, the half-life is how long it takes for the measured level to halve. A low value points to fast loss.

Bounds are passed on as bounds.

In the case of `O=C1OC(c2ccccc2)C(Cl)=C1Cl` (centres unmarked) [Compound 1, 3,4-dichloro-5-phenyl-2,5-dihydrofuran-2-one, reference compound], the “enhancement of viral titers after pre-incubation of compound in media” value in [1] was “did not lead to robust enhancement of viral titers”. The molecule also yielded an LD50 in [2] of 79 µM. The “growth of oncolytic HSV-1 expressing GFP” value in [3] is listed as “increased growth”. Also, the “GFP counts, HSV-N212eGFP” value in [4] was “increased GFP counts”. In addition, in data set [5] (ip), the “dose at which toxicity starts” value is listed as at least 10 mg/kg. Also, in data set [6], the “VSVΔ51-GFP titers / replication in tumor specimens” value was “enhanced”. For the same molecule, in data set [7], the “GFP counts, MG1-eGFP” value is on record as “increased GFP counts”. In addition, the half-life is under 5 min in data set [8] and 28.8 min in [10]. In data set [9], the “increase of virus output” value was ≤ 1,000 fold. Also, the “Plasma stab. % remaning at 3 hrs” value in data set [11] came out at 0%.
In turn, `O=C1OC(c2ccccc2)C(Br)=C1Br` (centres unmarked) [Compound 2] registered an LD50 in data set [2] of 87 µM. The half-life in data set [8] was under 5 min. In addition, the “Plasma stab. % remaning at 3 hrs” value in data set [11] came to 0%.
Turning to `O=C1OC(c2ccccc2)C(NCc2ccccc2)=C1Cl` (centres unmarked) [Compound 3], the LD50 in data set [2] was found to be 140 µM. For the same molecule, in [11], the “Plasma stab. % remaning at 3 hrs” value is on record as 65.6 ± 6.5%.
The molecule `CC(C)CNC1=C(Cl)C(=O)OC1c1ccccc1` (centres unmarked) [Compound 4] had an LD50 in data set [2] of 90 µM. In addition, in data set [11], the “Plasma stab. % remaning at 3 hrs” value is listed as 0%.
In turn, `O=C1OCC(Cl)=C1Cl` [Compound 5, 3,4-Dichloro-5H-furan-2-one] gave an LD50 in [2] of 41 µM. This molecule showed a half-life in data set [8] of under 5 min. For the same molecule, the “Plasma stab. % remaning at 3 hrs” value in [11] stood at 0%.
On the same counts, the results for `COC1OC(=O)C(Cl)=C1Cl` (centres unmarked) [Compound 6] are 73 µM, under 5 min and 0%.
On the same counts, the results for `C#CCOC1OC(=O)C(Cl)=C1Cl` (centres unmarked) [Compound 7] are 52 µM, under 5 min and 0%.
Molecule `O=c1[nH]n(-c2ccccc2)c(Cl)c1Cl` [Compound 8] came in with an LD50 in data set [2] of over 180 µM. Moreover, the “Plasma stab. % remaning at 3 hrs” value in [11] was 88.3 ± 9.3%.
With `O=C1NC(O)C(Cl)=C1Cl` (centres unmarked) [Compound 9], the LD50 in data set [2] stood at 148 µM. The molecule further came in with a half-life in data set [8] of 117 min. Moreover, in data set [11], the “Plasma stab. % remaning at 3 hrs” value was determined as 0% and the “stability in the plasma assay” value is given as “remarkably improved stability”.
Consider `O=C1C(Cl)=C(Cl)C(O)N1Cc1ccccc1` (stereo not drawn) [Compound 10, α,β-dichloro-γ-hydroxy-N-benzyl-crotonic lactam], for which the LD50 in [2] stood at 67 µM. Also, the “growth of oncolytic HSV-1 expressing GFP” value in [3] is reported as “increased growth”. For the same molecule, the “GFP counts, HSV-N212eGFP” value in data set [4] is reported as “increased GFP counts”. Besides, the “dose up to which well tolerated” value in data set [5] (ip) is recorded as at most 50 mg/kg. In addition, in data set [7], the “GFP counts, MG1-eGFP” value is “increased GFP counts”. In addition, the half-life in [8] was 32 min. Further, in data set [11], the “Plasma stab. % remaning at 3 hrs” value was 19.8 ± 0.4% and the “stability in the plasma assay” value is “remarkably improved stability”.
`O=C1C(Cl)=C(Cl)CN1Cc1ccccc1` [Compound 11] returned an LD50 in data set [2] of 332 µM. Moreover, in data set [8], the half-life turned out to be 64 min. The “Plasma stab. % remaning at 3 hrs” value in [11] was found to be 42.5 ± 9.6%.
On the same counts, the results for `COC1C(Cl)=C(Cl)C(=O)N1Cc1ccccc1` (centres unmarked) [Compound 12] are 206 µM, 118 min and 47.6 ± 1.4%.
In data set [2], `CC(=O)OC1C(Cl)=C(Cl)C(=O)N1Cc1ccccc1` (centres unmarked) [Compound 13] gave an LD50 of 61 µM. This molecule also returned a half-life in [8] of 21 min. Further, the “Plasma stab. % remaning at 3 hrs” value in [11] came to 0%.
For `O=C1C(Cl)=C(Cl)C(=O)N1Cc1ccccc1` [Compound 14], the LD50 in [2] is 104 µM. Moreover, the half-life in data set [8] is under 5 min. Besides, in data set [11], the “Plasma stab. % remaning at 3 hrs” value worked out at 70.2 ± 8.4%.
The molecule `O=C1C(Cl)=C(Cl)C(O)(c2ccccc2)N1Cc1ccccc1` (centres unmarked) [Compound 15] had an LD50 in [2] of 66 µM. In [8], the half-life was found to be 340 min. Moreover, the “Plasma stab. % remaning at 3 hrs” value in [11] is 14.9 ± 7.1%.
In [2], `O=C1C=CC(O)N1Cc1ccccc1` (centres unmarked) [Compound 16] showed an LD50 of over 360 µM. Moreover, the “Plasma stab. % remaning at 3 hrs” value in data set [11] stood at 98.2 ± 3.7%.
Molecule `CC1=C(C)C(O)N(Cc2ccccc2)C1=O` (centres unmarked) [Compound 17] showed an LD50 in data set [2] of over 360 µM. For the same molecule, the “Plasma stab. % remaning at 3 hrs” value in data set [11] is 82.0 ± 10.2%.
On to `CCC1=C(Cl)C(=O)N(Cc2ccccc2)C1O` (centres unmarked) [Compound 18], for which, in [2], the LD50 was over 360 µM.
`O=C1C(Cl)=C(c2ccccc2)C(O)N1Cc1ccccc1` (centres unmarked) [Compound 19] registered an LD50 in data set [2] of 250 µM.
`O=C1c2ccccc2C(O)N1Cc1ccccc1` (centres unmarked) [Compound 20]: the LD50 in data set [2] was over 360 µM. Moreover, the “Plasma stab. % remaning at 3 hrs” value in data set [11] worked out at 102.9 ± 1.6%.
The molecule `CC(=O)NCCSC1=C(Cl)C(=O)N(Cc2ccccc2)C1O` (centres unmarked) [Compound 21] had an LD50 in [2] of over 90 µM. Also, the “Plasma stab. % remaning at 3 hrs” value in data set [11] amounted to 102.7 ± 10.8%.
In data set [2], `O=C1C(Cl)=C(Cl)C(O)N1C1CC1` (centres unmarked) [Compound 25, 3,4-dichloro-1-cyclopropyl-5-hydroxy-1H-pyrrol-2(5H)-one] gave an LD50 of 127 µM. Further, the half-life in [8] worked out at 53 min. The “Plasma stab. % remaning at 3 hrs” value in data set [11] is recorded as 54.8 ± 3.6%.
Consider `O=C1C(Cl)=C(Cl)C(O)N1CCN1CCOCC1` (centres unmarked) [Compound 28, 3,4-dichloro-5-hydroxy-1-(2-morpholinoethyl)-1H-pyrrol-2(5H)-one], for which, in [12], the “impact on VSVΔ51 in normal tissue specimens” value is reported as “little to no impact”. Moreover, the LD50 in [2] turned out to be 153 µM. Also, the “GFP counts, HSV-N212eGFP” value in data set [4] was “increased GFP counts”. In addition, in data set [5], the “tolerated dose relative to parent compound 1” value is listed as over 10 ×. The “dose up to which well tolerated” value in data set [5] (ip) was “up to 100 mg/kg”. In addition, the “enhancement of VSVΔ51 output in tumor specimens” value in data set [6] is on record as about 100 fold. In addition, in data set [7], the “GFP counts, MG1-eGFP” value is recorded as “increased GFP counts”. Further, the “tumor-specific viral replication (luciferase activity, IVIS)” value in data set [13] was “significantly enhanced”. Besides, in data set [8], the half-life was 96 min. Also, the “Plasma stab. % remaning at 3 hrs” value in [11] is reported as 38.9 ± 5.2%.
`O=C1C(Cl)=C(Cl)C(O)N1CCc1ccccc1` (centres unmarked) [Compound 29, 3,4-dichloro-5-hydroxy-1-phenethyl-1H-pyrrol-2(5H)-one] gave an LD50 in [2] of 74 µM. For the same molecule, the “GFP counts, HSV-N212eGFP” value in [4] was “increased GFP counts”. Besides, the “GFP counts, MG1-eGFP” value in data set [7] is “increased GFP counts”. The half-life in data set [8] was found to be 74 min. Further, the “Plasma stab. % remaning at 3 hrs” value in data set [11] is 57.6 ± 6.6%.
For the molecule `O=C1C(Cl)=C(Cl)C(O)N1Cc1ccc(C(F)(F)F)cc1` (centres unmarked) [Compound 40, 3,4-dichloro-5-hydroxy-1-(4-(trifluoromethyl)benzyl)-1H-pyrrol-2(5H)-one], in [12], the “impact on VSVΔ51 in normal tissue specimens” value was “increases infection and replication in brain tissue”. This molecule also showed an LD50 in data set [2] of 36 µM. Also, the “VSVΔ51-GFP titers / replication in tumor specimens” value in data set [6] is on record as “enhances replication in tumors”. This molecule returned a half-life in [8] of 32 min. In addition, the “Plasma stab. % remaning at 3 hrs” value in data set [11] came out at 15.3 ± 2.5%.
